What was measured:
KRAS G12D = KRAS G12D (Homo sapiens, UniProt P01116, G12D); test: SOS-catalyzed nucleotide exchange assay, KRAS G12D (Procedure A); format: biochemical; settings: guanine nucleotide exchange (GNE)
Outline: (§1)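 60 min cpd preinc. w/ RAS–Bodipy-GDP–Tb-SA complex; + hSOS/GTP (3 mM final), RT. G12C 3 nM RAS/40 nM SOS; WT, G12D 1 nM/40 nM; 60 min rxn. G13D 1.25 nM, no SOS, 30 min rxn. HEPES pH 7.5, 10 mM MgCl2. Ratio 520/495, norm. to DMSO/max-inhibitor ctrls.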

KRAS G12V = KRAS G12V (Homo sapiens, UniProt P01116, G12V); test: SOS-catalyzed nucleotide exchange assay, KRAS G12V (Procedure A); format: biochemical; settings: GNE
Sequence of KRAS G12V (P01116 with tags, fused parts or gaps isoform P01116-2 G12V): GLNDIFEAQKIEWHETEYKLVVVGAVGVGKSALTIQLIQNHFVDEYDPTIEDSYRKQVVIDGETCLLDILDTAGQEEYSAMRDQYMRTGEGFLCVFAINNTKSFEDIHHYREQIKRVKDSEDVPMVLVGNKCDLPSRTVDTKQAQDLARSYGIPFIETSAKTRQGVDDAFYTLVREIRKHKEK
Outline: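 Biotinylated KRAS G12V was loaded with Bodipy-GDP alongside Terbium-streptavidin to form a TR-FRET complex, which was preincubated with compounds for 60 minutes in 384-well plates. Human SOS protein and unlabeled GTP were then added for 90 minutes, giving final concentrations of 1.25 nM KRAS-G12V, 160 nM SOS and 3 mM GTP. The 520/495 nm emission ratio was read on an Envision.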

HRAS = HRAS (Homo sapiens, UniProt P01112); test: SOS-catalyzed nucleotide exchange assay, HRAS (Procedure A); format: biochemical; settings: GNE
Sequence of HRAS (P01112 with tags, fused parts or gaps): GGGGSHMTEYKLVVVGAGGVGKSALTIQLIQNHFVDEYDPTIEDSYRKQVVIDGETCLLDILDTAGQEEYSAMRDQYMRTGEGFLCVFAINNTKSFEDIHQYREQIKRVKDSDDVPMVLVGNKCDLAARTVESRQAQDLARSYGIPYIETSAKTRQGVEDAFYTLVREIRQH
Excerpt: (§2) Procedure for SOS-Catalyzed Nucleotide Exchange Assay for KRAS-WT, G12C/D/V, G13D, HRAS, and NRAS (Procedure A)
(§3) Recombinant KRAS-G12C protein used in this assay has an additional triple mutation (C51S/C80L/C118S). Whereas KRAS-WT, G12D/V, G13D, HRAS and NRAS are in context of their WT protein sequence background. Specifically, the SOS-catalyzed nucleotide exchange assay utilizes a preformed TR-FRET complex containing a specific biotinylated RAS protein (KRAS-WT, G12C/V/D, G13D, HRAS, NRAS; described above) with Bodipy-GDP, and Terbium-streptavidin. Compounds are preincubated with this complex for 60 minutes. Subsequently, recombinant human SOS protein and unlabeled GTP are added to initiate the exchange reaction. Small molecule inhibitors stabilize the Bodipy-GDP complex whereas the untreated protein rapidly exchanges Bodipy-GDP for unlabeled GTP resulting in reduced TR-FRET signal.
(§4) To assemble the preformed TR-FRET complexes, each biotinylated RAS protein is diluted to 2 μM in an EDTA Buffer (20 mM HEPES pH 7.5, 50 mM sodium chloride, 10 mM EDTA, and 0.01% Tween) and incubated at room temperature for one hour. This mixture is then further diluted to 90 nM in an Assay Buffer (20 mM HEPES pH 7.5, 150 mM sodium chloride, 10 mM magnesium chloride, and 0.005% Tween) containing 15 nM of Terbium-Streptavidin (Invitrogen, catalog #PV3577) and 900 nM of Bodipy-GDP (Invitrogen, catalog #G22360) and incubated at room temperature for six hours. It should be noted that this preformed TR-FRET complex for each of the RAS protein were made ahead of time, aliquoted and stored at −80° C. until the day of the experiment.
(§5) Each test compound (10 mM stock in DMSO) is diluted in DMSO to make a final-10-point, 3-fold dilution and is acoustically dispensed into a 384-well assay plate (Corning, catalog #3820) using an Echo 550 (Labcyte). Each well of the assay plate receives 3 μL of a specific 3×RAS preformed TR-FRET complex and 3 μL of Assay Buffer and is incubated at room temperature for 60 minutes (preincubation time). Each well then receives 3 μL of 3× recombinant human SOS protein and GTP (Sigma, G8877) in Assay Buffer and is incubated at room temperature for 30 minutes (G13D), 60 minutes (KRAS WT/G12C/D, H/NRAS) or 90 minutes for G12V. The final reaction in each well of 9 μL consists of 3 mM GTP, specific Ras and SOS proteins in the following concentrations: KRAS-G12C/SOS=3 nM/40 nM, KRAS-WT and G12D/SOS=1 nM/40 nM, KRAS-G12V/SOS=1.25 nM/160 nM, KRAS-G13D/SOS=1.25 nM/0 nM, HRAS and NRAS=1.25 nM/40 nM.
(§6) The time-resolved fluorescence resonance energy transfer (TR-FRET) signal is measured on an Envision (PerkinElmer) plate reader: Excitation filter=340 nm; emission1=495 nm; emission2=520 nm; dichroic mirror=D400/D505; delay time=[…]. The signal of each well is determined as the ratio of the emission at 520 nm to that at 495 nm. Percent effect of each well is determined after normalization to control wells containing DMSO (no effect) or a saturating concentration of inhibitor (max effect). The apparent effect as a function of compound concentration is fit to a four-parameter logistic equation.
(§7) For Example No. 14, nucleotide exchange assays for KRAS G12D, WT, G12C, and G12V were performed according to Procedure B. All the other compounds were tested according to Procedure A.

KRAS G12C = KRAS G12C (Homo sapiens, UniProt P01116, C118S/C51S/C80L/G12C); test: SOS-catalyzed nucleotide exchange assay, KRAS G12C (Procedure A); format: biochemical; settings: GNE
Sequence of KRAS G12C (P01116 with tags, fused parts or gaps isoform P01116-2 G12C/C51S/C80L/C118S): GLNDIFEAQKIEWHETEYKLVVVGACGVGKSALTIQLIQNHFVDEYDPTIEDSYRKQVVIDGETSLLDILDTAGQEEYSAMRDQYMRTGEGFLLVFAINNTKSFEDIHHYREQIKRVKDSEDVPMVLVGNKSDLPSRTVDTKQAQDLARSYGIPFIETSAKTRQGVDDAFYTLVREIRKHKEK
Excerpt: as §2, §3, §4, §5, §6, §7

KRAS G13D = KRAS G13D (Homo sapiens, UniProt P01116, G13D); test: SOS-catalyzed nucleotide exchange assay, KRAS G13D (Procedure A); format: biochemical; settings: GNE
Sequence of KRAS G13D (P01116 with tags, fused parts or gaps isoform P01116-2 G13D): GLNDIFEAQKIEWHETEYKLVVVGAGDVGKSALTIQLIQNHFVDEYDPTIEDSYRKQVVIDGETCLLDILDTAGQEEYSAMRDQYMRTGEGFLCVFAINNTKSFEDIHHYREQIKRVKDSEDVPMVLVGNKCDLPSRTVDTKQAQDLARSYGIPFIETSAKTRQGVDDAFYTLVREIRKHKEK
Excerpt: as §2, §3, §4, §5, §6, §7

KRAS WT = KRAS WT (Homo sapiens, UniProt P01116); test: SOS-catalyzed nucleotide exchange assay, KRAS WT (Procedure A); format: biochemical; settings: GNE
Sequence of KRAS WT (P01116 with tags, fused parts or gaps isoform P01116-2): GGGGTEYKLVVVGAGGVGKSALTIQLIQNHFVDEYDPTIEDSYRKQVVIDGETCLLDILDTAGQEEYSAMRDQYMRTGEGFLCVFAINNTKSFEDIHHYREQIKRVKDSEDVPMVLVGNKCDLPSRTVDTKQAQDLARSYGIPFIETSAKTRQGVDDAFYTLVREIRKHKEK
Outline: as §1

NRAS = NRAS (Homo sapiens, UniProt P01111); test: SOS-catalyzed nucleotide exchange assay, NRAS (Procedure A); format: biochemical; settings: GNE
Sequence of NRAS (P01111 with tags, fused parts or gaps): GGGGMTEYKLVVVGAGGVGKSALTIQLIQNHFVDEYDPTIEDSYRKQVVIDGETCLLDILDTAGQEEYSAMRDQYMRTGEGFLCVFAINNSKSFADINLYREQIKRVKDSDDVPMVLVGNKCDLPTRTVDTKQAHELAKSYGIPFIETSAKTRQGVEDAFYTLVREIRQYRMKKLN
Excerpt: as §2, §3, §4, §5, §6, §7

AsPC-1 cells = biological target: T1, AsPC-1 cells (Homo sapiens, UniProt P01116, G12D); test: Cellular phospho-ERK assay, AsPC-1 cells (KRAS G12D); format: cell-based; settings: 2 hours, read-out: AsPC1 pERK IC50
T1 construct: p-ERK/total ERK AlphaSureFire read-out
T1 sequence (P01116 1-188 isoform P01116-2 G12D): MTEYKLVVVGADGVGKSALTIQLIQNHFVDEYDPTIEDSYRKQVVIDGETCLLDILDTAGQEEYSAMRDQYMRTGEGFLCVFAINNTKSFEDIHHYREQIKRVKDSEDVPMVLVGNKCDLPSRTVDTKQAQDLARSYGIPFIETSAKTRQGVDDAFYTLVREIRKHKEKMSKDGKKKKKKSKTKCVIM
Outline: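 Compound was titrated 10-point in 3-fold steps (top 30 μM) on KRAS G12D homozygous pancreatic lines PANC08.13 and AsPC-1 for 2 h at 37 °C. The p-ERK/total ERK ratio was measured by multiplex AlphaLISA SureFire and fitted with a 4-parameter logistic model to give IC50.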

Sequence of KRAS G12D (P01116 with tags, fused parts or gaps isoform P01116-2 G12D): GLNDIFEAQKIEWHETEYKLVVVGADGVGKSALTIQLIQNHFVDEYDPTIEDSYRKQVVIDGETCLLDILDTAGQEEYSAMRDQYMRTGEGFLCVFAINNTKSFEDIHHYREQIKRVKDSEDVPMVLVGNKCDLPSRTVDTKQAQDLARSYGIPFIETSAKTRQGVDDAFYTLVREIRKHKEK

Structure (SMILES) | IC50 (KRAS G12D) [µM] | IC50 (KRAS G12V) [µM] | IC50 (HRAS) [µM] | IC50 (KRAS G12C) [µM] | IC50 (KRAS G13D) [µM] | IC50 (KRAS WT) [µM] | IC50 (NRAS) [µM] | IC50 (AsPC-1 cells) [µM]
Clc1cc2[nH]ncc2c(-c2nccc3c2sc2nc(OCC45CCOC(CO4)C5)nc(N4C[C@H]5CC[C@@H](C4)N5)c23)c1C1CC1 [Ex-22, 2-((2,6-dioxabicy-clo[3.2.1]octan-5-yl)methoxy)-4-((1R,5S)-3,8-diazabicy-clo[3.2.1]octan-3-yl)-8-(6-chloro-5-cyclopropyl-1H-indazol-4-yl)pyrido [4′,3′:4,5]thi-eno[2,3-d]pyrimidine] | 2.73 | > 11.1 | > 11.1 | > 11.1 | 9.11 | > 11.1 | > 11.1 | 10
OC1C2CCCC1(COc1nc(N3C[C@H]4CC[C@@H](C3)N4)c3c(n1)sc1c(-c4c(C5CC5)c(Cl)cc5[nH]ncc45)nccc13)CC2 (stereo partly drawn) [Ex-24, 1-(((4-((1R,5S)-3,8-diazabicy-clo[3.2.1]octan-3-yl)-8-(6-chloro-5-cyclopropyl-1H-indazol-4-yl)pyri-do[4′,3′:4,5]thi-eno[2,3-d]pyrimidin-2-yl)oxy)methyl)bi-cyclo[3.2.1]oc-tan-8-ol] | 5.23 | > 11.1 | > 11.1 | > 11.1 | > 11.1 | > 11.1 | > 11.1 | 18.4
Cc1cc2[nH]ncc2c(-c2nccc3c2sc2nc(OC[C@@]45CCCN4C[C@H](F)C5)nc(N4CC5COCC(C4)N5)c23)c1C(F)(F)F [Ex-65, 7-(2-(((2R,7aS)-2-fluorotetrahydro-1H-pyrrolizin-7a(5H)-yl)methoxy)-8-(6-methyl-5-(trifluoromethyl)-1H-indazol-4-yl)pyrido[4′,3′:4,5]thieno[2,3-d]pyrimidin-4-yl)-3-oxa-7,9-diazabicyclo[3.3.1]nonane] | 0.128 | > 11.1 | > 11.1 | 1.96 | 2.74 | 8.79 | > 11.1 | 1.7
Cc1cc2[nH]ncc2c(-c2nccc3c2sc2nc(OCC4(C#N)CCOCC4)nc(N4C[C@H]5CC[C@@H](C4)N5)c23)c1C(F)(F)F [Ex-38, 4-(((4-((1R,5S)-3,8-diazabicyclo[3.2.1]octan-3-yl)-8-(6-methyl-5-(trifluoromethyl)-1H-indazol-4-yl)pyrido[4′,3′:4,5]thieno[2,3-d]pyrimidin-2-yl)oxy)methyl)tetrahydro-2H-pyran-4-carbonitrile] | 3.79 | > 11.1 | > 11.1 | > 11.1 | 3.55 | > 11.1 | > 11.1 | > 30
Cc1cc2[nH]ncc2c(-c2nccc3c2sc2nc(OC[C@@]45CCCN4C[C@H](F)C5)nc(N4[C@@H]5CC[C@H]4CNC5)c23)c1C(F)(F)F [Ex-71, 4-((1R,5S)-3,8-diazabicyclo[3.2.1]octan-8-yl)-2-(((2R,7aS)-2-fluorotetrahydro-1H-pyrrolizin-7a(5H)-yl)methoxy)-8-(6-methyl-5-(trifluoromethyl)-1H-indazol-4-yl)pyrido[4′,3′:4,5]thieno[2,3-d]pyrimidine] | 0.0348 | 5.16 | > 11.1 | 1.1 | 2.51 | 8.09 | > 11.1 | 0.885
CN(C)C[C@@]1(COc2nc(N3C[C@H]4CC[C@@H](C3)N4)c3c(n2)sc2c(-c4c(C5CC5)c(Cl)cc5[nH]ncc45)nccc23)CC1(F)F [Ex-21, 1-((1R)-1-(((4-((1R,5S)-3,8-diazabicy-clo[3.2.1]octan-3-yl)-8-(6-chloro-5-cyclopropyl-1H-indazol-4-yl)pyrido [4′,3′:4,5]thieno [2,3-d]pyrimidin-2-yl)oxy)methyl)-2,2-difluoro-cyclopropyl)-N,N-dimethyl-methanamine] | 0.00789 | 5 | > 11.1 | 0.457 | 0.486 | 2.8 | > 11.1 | 0.612
Cc1cc2[nH]ncc2c(-c2nccc3c2sc2nc(OC[C@@]45CCCN4C[C@H](F)C5)nc(N4CCC5CCC(C4)N5)c23)c1C(F)(F)F (stereo partly drawn) [Ex-72, 4-(3,9-diazabicyclo[4.2.1]nonan-3-yl)-2-(((2R,7aS)-2-fluorotetrahydro-1H-pyrrolizin-7a(5H)-yl)methoxy)-8-(6-methyl-5-(trifluoromethyl)-1H-indazol-4-yl)pyrido[4′,3′:4,5]thieno[2,3-d]pyrimidine] | 5.3 | > 11.1 | > 11.1 | > 11.1 | 2.62 | > 11.1 | > 11.1 | > 30
Cc1cc2[nH]ncc2c(-c2nccc3c2sc2nc(OCC4(C#N)CCCO4)nc(N4C[C@H]5CC[C@@H](C4)N5)c23)c1C(F)(F)F (stereo partly drawn) [Ex-34, 2-(((4-((1R,5S)-3,8-diazabicyclo[3.2.1]octan-3-yl)-8-(6-methyl-5-(trifluoromethyl)-1H-indazol-4-yl)pyrido[4′,3′:4,5]thieno[2,3-d]pyrimidin-2-yl)oxy)methyl)tetrahydrofuran-2-carbonitrile] | 6.7 | > 11.1 | > 11.1 | > 11.1 | > 11.1 | > 11.1 | > 11.1 | > 30
Cc1cc2[nH]ncc2c(-c2nccc3c2sc2nc(OCC4(C)CS(=O)(=O)C4)nc(N4C[C@H]5CC[C@@H](C4)N5)c23)c1C(F)(F)F [Ex-39, 3-(((4-((1R,5S)-3,8-diazabicyclo[3.2.1]octan-3-yl)-8-(6-methyl-5-(trifluoromethyl)-1H-indazol-4-yl)pyrido[4′,3′:4,5]thieno[2,3-d]pyrimidin-2-yl)oxy)methyl)-3-methylthietane 1,1-dioxide] | 2.42 | > 11.1 | > 11.1 | > 11.1 | > 11.1 | > 11.1 | > 11.1 | 12.8

— US20260347372A1, “SMALL MOLECULE INHIBITORS OF KRAS G12D MUTANT” (MERCK SHARP & DOHME LLC, priority 2023, published 2026)
